Laboratory results reported in ChEMBL document CHEMBL3885861, “Open TG-GATES”.

Species: Rattus norvegicus
Test: Open TG-GATES - Regimen: Daily Repeat
Assay type: toxicity, organism-based, Sprague-Dawley
Design: regimen Daily Repeat, gender Male, age 6 weeks
Conditions: in vivo, po, 1000 mg/kg, […], route gavage, dose level High; for KIDNEY_L / KIDNEY_R / KIDNEY_TOTAL: tissue Kidney; for LIVER: tissue Liver; for A/G / ALP / ALT / AST / BUN / CRE / Ca / Cl / DBIL / GLC / IP / K / LDH / Na / PL / RALB / TBIL / TC / TG / TP / gamma-GTP: tissue Plasma

`CN/C(=N/CCSCc1nc[nH]c1C)NC#N` [CIMETIDINE] gave a Lym (tissue Blood, time 28 day) of 83.4%, an MCH (tissue Blood, time 28 day) of 19 pg and an MCHC (tissue Blood, time 28 day) of 34.4%. It also gave an MCV (tissue Blood, time 28 day) of 55.3 fL, a Mono (tissue Blood, time 28 day) of 2% and a Neu (tissue Blood, time 28 day) of 12.6%. It also gave a PT (tissue Blood, time 28 day) of 13.2 s, a Plat (tissue Blood, time 28 day) of 102.4 x10_4/uL and an RBC (tissue Blood, time 28 day) of 782 x10_4/ul. The Ret (tissue Blood, time 28 day) was 2.9%, the WBC (tissue Blood, time 28 day) was 177.7 x10_2/uL and the KIDNEY_L (time 7 day) was 1.1 g. It also gave a KIDNEY_R (time 7 day) of 1.1 g, a KIDNEY_TOTAL (time 7 day) of 2.2 g and a KIDNEY_L (time 14 day) of 1.2 g. It also gave a KIDNEY_R (time 14 day) of 1.3 g, a KIDNEY_TOTAL (time 14 day) of 2.5 g and a KIDNEY_L (time 28 day) of 1.4 g. For the same compound, the KIDNEY_R (time 28 day) was 1.4 g, the KIDNEY_TOTAL (time 28 day) was 2.8 g and the LIVER (time 7 day) was 12.9 g. It also gave an LIVER (time 14 day) of 14.1 g, an LIVER (time 28 day) of 16.4 g and an A/G (time 7 day) of 1.4. The ALP (time 7 day) was 1073 IU/L, the ALT (time 7 day) was 38.4 IU/L and the AST (time 7 day) was 72.2 IU/L. The BUN (time 7 day) was 17 mg/dL, the CRE (time 7 day) was 0.5 mg/dL and the Ca (time 7 day) was 11 mg/dL. It also gave a Cl (time 7 day) of 101.8 meq/L, a DBIL (time 7 day) of 0.096 mg/dL and a GLC (time 7 day) of 216 mg/dL. It also gave an IP (time 7 day) of 7.9 mg/dL, a K (time 7 day) of 4 meq/L and an LDH (time 7 day) of 279.2 IU/L. For the same compound, the Na (time 7 day) was 140.4 meq/L, the PL (time 7 day) was 165.8 mg/dL and the RALB (time 7 day) was 3.3 g/dL. It also gave a TBIL (time 7 day) of 0.1 mg/dL, a TC (time 7 day) of 79.4 mg/dL and a TG (time 7 day) of 134.4 mg/dL. For the same compound, the TP (time 7 day) was 5.6 g/dL, the gamma-GTP (time 7 day) was 1.8 IU/L and the A/G (time 14 day) was 1.4. The ALP (time 14 day) was 808 IU/L, the ALT (time 14 day) was 31.2 IU/L and the AST (time 14 day) was 62.2 IU/L. For the same compound, the BUN (time 14 day) was 19 mg/dL, the CRE (time 14 day) was 0.4 mg/dL and the Ca (time 14 day) was 10.7 mg/dL. For the same compound, the Cl (time 14 day) was 101.8 meq/L, the DBIL (time 14 day) was 0.1 mg/dL and the GLC (time 14 day) was 213.4 mg/dL. The IP (time 14 day) was 7.7 mg/dL, the K (time 14 day) was 3.7 meq/L and the LDH (time 14 day) was 186.8 IU/L. The Na (time 14 day) was 141 meq/L, the PL (time 14 day) was 165.6 mg/dL and the RALB (time 14 day) was 3.4 g/dL. For the same compound, the TBIL (time 14 day) was 0.2 mg/dL, the TC (time 14 day) was 85.8 mg/dL and the TG (time 14 day) was 111.2 mg/dL. It also gave a TP (time 14 day) of 5.8 g/dL, a gamma-GTP (time 14 day) of 1.8 IU/L and an A/G (time 28 day) of 1.1. The ALP (time 28 day) was 637.6 IU/L, the ALT (time 28 day) was 40 IU/L and the AST (time 28 day) was 66.6 IU/L. For the same compound, the BUN (time 28 day) was 20.4 mg/dL, the CRE (time 28 day) was 0.6 mg/dL and the Ca (time 28 day) was 10.2 mg/dL. For the same compound, the Cl (time 28 day) was 101 meq/L, the DBIL (time 28 day) was 0.1 mg/dL and the GLC (time 28 day) was 284 mg/dL. For the same compound, the IP (time 28 day) was 8.1 mg/dL, the K (time 28 day) was 3.5 meq/L and the LDH (time 28 day) was 178.2 IU/L. The Na (time 28 day) was 140 meq/L, the PL (time 28 day) was 158.2 mg/dL and the RALB (time 28 day) was 3.1 g/dL. The TBIL (time 28 day) was 0.2 mg/dL, the TC (time 28 day) was 77.8 mg/dL and the TG (time 28 day) was 113.6 mg/dL. The TP (time 28 day) was 5.9 g/dL and the gamma-GTP (time 28 day) was 1.4 IU/L.
